# Measured values taken from PMC12434536, “Radiosynthesis and Preclinical Evaluation of a Carbon-11 Labeled Phosphodiesterase 7 Inhibitor for PET Neuroimaging” (ACS Medicinal Chemistry Letters, 2025).
# Where two headings read alike, the source gives them in different places.
# Assays:
# [1] = tested on: PDE7; test: PET imaging in rats (baseline and self-blocking); format: in vivo, Sprague-Dawley rats; conditions: SD rats, self-blocking, 1 mg/kg
# Experimental: page 10: All animal experiments were approved by the Institutional Animal Care and Use Committee of Massachusetts General Hospital or the National Institute of Radiological Sciences (Japan). C57BL/6 mice (female; 8 weeks, 20-25 g) and Sprague-Dawley rats (male; 8-9 weeks; 264-310 g) were kept on a 12 h light/12 h dark cycle and were allowed food and water ad libitum. Rodent PET scans were carried out using a […] (Sofie Biosciences, Culver, CA, USA) or a Siemens Inveon PET/CT system. Animals were kept under anesthesia using 1-2% (v/v) isoflurane in oxygen during the scan. The radiotracer (1.85 MBq for mice; 42-53 MBq for rats) was injected into the tail vein via a preinstalled catheter. A dynamic scan in 3D list mode was acquired for 60 min. The PET dynamic images were reconstructed using the manufacturer's acquisition software. Volumes of interest, including whole brain, cortex, striatum, hippocampus, thalamus and cerebellum were placed using AMIDE / PMOD software. The radioactivity was decay-corrected and expressed as standardized uptake value (SUV = radioactivity per mL tissue / injected radioactivity × bodyweight). S8
# [2] = Plasma protein binding (free fraction); format: in vitro ADME; conditions: mouse, rat, and human plasma
# Experimental: The general procedure for lipophilicity measurement was previously described, 4 with minor modification in this work. Briefly, the measurement of LogD value was carried out by mixing [11C]27 (radiochemical purity > 99%) with n-octanol (3.0 g) and PBS (0.1 M, 3.0 g) in a test tube. Both n-octanol and PBS were pre-saturated with each other prior to use. The tube was first vortexed for 5 min, followed by centrifugation (~3500-4000 rpm) for an additional 5 min. PBS and n-octanol were aliquoted, weighed and the radioactivity in each component was measured using a Cobra Model 5002/5003 gamma counter. The LogD was determined by Log [ratio of radioactivity in n-octanol and aqueous layer, respectively] (n = […]
# For the evaluation of plasma protein binding,5 55.5 MBq radiotracer was added to 150 μL of plasma, which was pre-incubated under 37 °C for 5 min (n = 3). The samples were incubated at 37 °C for 10 min. To each 150 μL of radiotracer-plasma solution was added 300 μL of ice-cold PBS and all samples were briefly vortexed. […] The radioactivity (in Becquerel) was measured in the protein fraction (Aprotein), filtrate, and filter unit using a gamma counter (Wizard, PerkinElmer), Atotal was calculated as the sum of radioactivity, and the free fraction f u was calculated according to the following eq.: f u = 1-
# [3] = molecular target: hERG channel (Homo sapiens, UniProt Q12809); test: In vitro safety: hERG channel inhibition; format: biochemical
# Experimental: time-dependent manner for 80 min with an acquisition interval of 2 min. IC50 curves were
# plotted using a non-linear regression model with Graphpad Prism 6. The latter method was
# further applied to assess the inhibitory constant of compound 27 to the hERG channel. […]
# [4] = tested on: PDE7; test: PET imaging in nonhuman primates (baseline and self-blocking); format: in vivo, Cynomolgus monkeys; conditions: monkeys, self-blocking, 0.4 or 1 mg/kg
# Experimental: Cynomolgus monkeys used for PET/CT scan were deprived of food for 12h but allowed to drink water at any time. Animals (Male, bodyweight 5.0-5.2 kg) were anesthetized with ketamine, placed into the scanner (GE Discovery Elite 690, USA), and maintained with 2% isoflurane and 98% oxygen. A solution of [11C]27 (6.24–9.84 mCi) was injected into the monkey via a venous catheter, followed by a dynamic PET scan. For the blocking study, the blocking reagent reference compound 27 (0.4 or 1.0 mg/kg, iv) was used, followed by the injection of [11C]27. Time-activity curves of each brain region were extracted from the corresponding VOIs and brain uptake was decay-corrected and expressed as SUV. biodistribution studies in miceWhole-body ex vivo
# [5] = Pharmacokinetics in plasma and brain (NeuroPK study); format: in vivo, Sprague-Dawley rats
# Experimental: Pharmacokinetics in Plasma and Brain (NeuroPK study)
# Nine male wildtype Sprague Dawley rats were administered a bolus injection containing compound 27 in saline (1 mg/kg, 2 mL/kg) via the tail vein. Blood samples (approximately 120 µL) were harvested under light isoflurane anesthesia from a set of three rats at 0.08, 0.25, and 1 hr. Blood and brain samples were collected at 5, […] and 60 min. Following centrifugation of blood samples, the resulting plasma supernatant was stored at -70 ± 10 °C till further analysis. Brain samples were homogenized using ice-cold phosphate buffer saline (pH 7.4) and homogenates were stored below -70 ± 10 °C until further analysis. Total homogenate volume was three times the brain weight. Plasma and brain samples were quantified by LC-MS/MS method. The plasma and brain concentration-time data of compound 27 was used for pharmacokinetic analysis. […]
# [6] = 5 min, single iv 1 mg/kg, male Sprague-Dawley rats, n = 3, 1 mg/kg
# Sequence of hERG channel (Q12809 whole entry): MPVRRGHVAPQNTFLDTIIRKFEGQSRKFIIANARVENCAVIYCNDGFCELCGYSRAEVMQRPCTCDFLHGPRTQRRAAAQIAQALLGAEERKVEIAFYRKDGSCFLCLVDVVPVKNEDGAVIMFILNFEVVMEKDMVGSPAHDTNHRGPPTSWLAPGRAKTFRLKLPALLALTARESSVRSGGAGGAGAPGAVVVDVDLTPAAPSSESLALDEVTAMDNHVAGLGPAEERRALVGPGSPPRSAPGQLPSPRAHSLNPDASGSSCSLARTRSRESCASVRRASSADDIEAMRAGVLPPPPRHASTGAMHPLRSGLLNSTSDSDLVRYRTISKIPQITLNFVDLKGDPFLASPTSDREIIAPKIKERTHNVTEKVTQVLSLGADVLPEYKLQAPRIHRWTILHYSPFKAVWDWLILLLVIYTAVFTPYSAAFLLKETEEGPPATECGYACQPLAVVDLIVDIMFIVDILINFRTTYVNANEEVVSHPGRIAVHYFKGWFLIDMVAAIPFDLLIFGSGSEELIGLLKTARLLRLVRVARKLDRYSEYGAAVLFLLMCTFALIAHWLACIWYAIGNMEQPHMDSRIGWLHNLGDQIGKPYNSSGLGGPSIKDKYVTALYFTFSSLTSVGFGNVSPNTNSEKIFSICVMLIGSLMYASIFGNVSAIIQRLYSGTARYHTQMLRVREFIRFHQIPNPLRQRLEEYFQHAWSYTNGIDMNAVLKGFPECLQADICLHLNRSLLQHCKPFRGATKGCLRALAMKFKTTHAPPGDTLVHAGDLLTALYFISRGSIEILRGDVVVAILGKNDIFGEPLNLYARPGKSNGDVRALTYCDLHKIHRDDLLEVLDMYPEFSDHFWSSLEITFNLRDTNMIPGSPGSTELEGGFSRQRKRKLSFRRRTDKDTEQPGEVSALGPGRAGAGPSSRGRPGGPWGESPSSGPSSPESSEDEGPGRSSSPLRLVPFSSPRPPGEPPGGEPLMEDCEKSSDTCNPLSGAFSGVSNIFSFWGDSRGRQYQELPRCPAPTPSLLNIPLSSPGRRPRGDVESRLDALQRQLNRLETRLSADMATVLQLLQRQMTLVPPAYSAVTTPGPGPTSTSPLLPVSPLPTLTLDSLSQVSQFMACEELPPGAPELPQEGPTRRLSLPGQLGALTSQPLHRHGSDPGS
structure (smiles),measurement,setting,value
COc1ccc(Cl)c2c1C1(CCCCC1)NC(=O)N2 [Compound 27],effect of pretreatment on [11C]27 brain uptake,[1],marginally reduced brain uptake
same,fraction unbound at 10 min,[2],≥ 0.01
same,IC50,[3],> 100 µM
same,effect of pretreatment on [11C]27 uptake in all assessed brain regions,[4],moderately reduced
same,brain concentration mean,[5]; [6],3316.17 ng/g
same,plasma concentration mean,[5]; [6],712.49 ng/mL
same,plasma concentration mean,"[5]; 60 min, single iv 1 mg/kg, male Sprague-Dawley rats, n = 3, 1 mg/kg",39.39 ng/mL
same,brain-to-plasma ratios (Kp),"[5]; all measured time points (5-60 min), SD rats, 1 mg/kg iv, 1 mg/kg",> 3
same,fraction of the compound remaining in the brain,"[5]; last measured time point (60 min), relative to 5 min peak, rats",less than 5%
same,Kp at 5 min,"[5]; male, Sprague-Dawley, rat, brain, iv, 1 mg/kg, 5 min, single iv 1 mg/kg, male Sprague-Dawley rats, n = 3, read-out: Kp (brain-to-plasma ratio) mean",4.76
same,Kp at 25 min,"[5]; male, Sprague-Dawley, rat, brain, iv, 1 mg/kg, 25 min, single iv 1 mg/kg, male Sprague-Dawley rats, n = 3, read-out: Kp (brain-to-plasma ratio) mean",4
same,Kp at 1 h,"[5]; male, Sprague-Dawley, rat, brain, iv, 1 mg/kg, 60 min, single iv 1 mg/kg, male Sprague-Dawley rats, n = 3, read-out: Kp (brain-to-plasma ratio) mean",3.35
same,Kp,"[5]; male, Sprague-Dawley, rat, brain, iv, 1 mg/kg, all measured time points (5-60 min), SD rats, 1 mg/kg iv, read-out: brain-to-plasma ratios (Kp)",3 to 5
same,concentration at 5 min,"[5]; rat, brain, 5 min, single iv 1 mg/kg, male Sprague-Dawley rats, n = 3, read-out: brain concentration mean",3320 ± 378 ng/g
same,concentration at 25 min,"[5]; rat, brain, 25 min, single iv 1 mg/kg, male Sprague-Dawley rats, n = 3, read-out: brain concentration mean",876 ng/g
same,concentration at 60 min,"[5]; rat, brain, 60 min, single iv 1 mg/kg, male Sprague-Dawley rats, n = 3, read-out: brain concentration mean",132 ng/g
same,concentration at 5 min,"[5]; rat, plasma, 5 min, single iv 1 mg/kg, male Sprague-Dawley rats, n = 3, read-out: plasma concentration mean",712 ± 153 ng/mL
same,concentration at 25 min,"[5]; rat, plasma, 25 min, single iv 1 mg/kg, male Sprague-Dawley rats, n = 3, read-out: plasma concentration mean",229 ng/mL
same,concentration at 60 min,"[5]; rat, plasma, 60 min, single iv 1 mg/kg, male Sprague-Dawley rats, n = 3, read-out: plasma concentration mean",39.4 ± 4.44 ng/mL
